Format in all cases: cell-based, mouse
For experiment [1], the system named is TNF. As to the kind of experiment: TNF production in BMDCs, intracellular staining, flow cytometry. The settings on record: 1 mM TDMM 24 hours, LPS (1 ug/ml) 4 hours. As to the method: Intracellular staining was performed to assess TNF production.
(§1) Intracellular staining was performed to assess TNF (FIG. 3A) and IL-12 (FIG. 3B) production.
(§2) Briefly, bone marrow was harvested from femurs of mice and cultured for 7 days in the presence of DC-skewing cytokines, GM-CSF and IL-4. […] The pro-inflammatory cytokines, IL-6 and IL-12, were specifically queried. […] Immune cells communicate largely through the production of soluble factors including cytokines, and DCs detect these signals and determine their effector functions accordingly.
(§3) The inventors performed a series of assays where bone marrow derived macrophages (BMDMs), bone marrow derived dendritic cells (BMDCs), and splenic dendritic cells (splenic DCs), were exposed to a series of TDMMs, including indole, indole-3-acetate (I3AT), 5-hydroxyindole (5HI), and indole-3-pyruvate (I3P), as well as indole-3-carbinol (I3C; a plant derived compound) to be used for a positive control (1 mM for 24 hours). The BMDMs and BMDCs were stimulated with LPS for 4 hours and assayed at day 7 for expression of various pro-inflammatory cytokines. In a similar assay, the BMDMs and BMDCs were stimulated with LPS or CpG, respectively, for 15 minutes and assayed for pAKT and pERK signaling, which is a reflection of pro-inflammatory response.

For experiment [2], the system named is IL-12. The experiment can be described thus: IL-12 production in BMDCs, intracellular staining, flow cytometry. The settings on record: BMDCs, 1 mM TDMM 24 hours, LPS (1 ug/ml) 4 hours. As to the method:
as §1, §2, §3
Background: In flow cytometry, cells or beads pass a laser one at a time.

Experiment [3] has as its system Akt. The experiment can be described thus: phospho-Akt in BMDCs, flow cytometry. The following applies: BMDCs, 1 mM TDMM 24 hours, CpG (5 uM) 15 minutes. On the procedure: Flow cytometric analysis was performed on BMDCs conditioned with indole from day 3 of culture and subsequently stimulated with LPS (5 ug/ml) for the given times. Cells were stained for phospho-Akt and analyzed by flow cytometry.
Flow cytometric analysis was performed on BMDCs from WT or AhrKO mice cultured in the presence of indole (1 mM) from day 3. DCs were stimulated with LPS (5 ug/ml) for the given times and stained for phospho-Akt, which was detected by flow cytometry. Percentage of pAkt-positive DCs indicated. Representative data is from one of three independent experiments.
Another central mediator of cellular signaling is the serine/threonine kinase, Akt (also referred to as protein kinase B), which regulates cellular processes including metabolism, growth, proliferation, and survival. The Akt pathway is activated by numerous receptor tyrosine kinases, cytokine receptors, G-protein-coupled receptors, and other molecules which activate the lipid kinase PI3K and result in production of phosphatidylinositol (3,4,5)-trisphosphate (PIPS). This second messenger acts as a docking site at the plasma membrane for Akt where phosphorylation and activation occurs. Akt is located upstream of NF-kB and can induce NF-kB signaling via phosphorylation of IKKα and Tp12. The effect of indole on Akt phosphorylation was assessed to determine whether indole's inhibition of NF-kB might be a secondary effect due to modulation of an upstream target.
as §3

The subject of experiment [4] is Akt. The experiment can be described thus: phospho-Akt signaling in BMDMs. The settings on record: 1 mM TDMM 24 hours, LPS 1 ug/ml 15 minutes. As to the method: (§4) The PI3K/Akt and MAPK/Erk signaling pathways regulate many cellular processes including survival, apoptosis, growth, and cytokine production. […] Specifically, BMDMs were treated with indole (1 mM) or DMF control for 18 hours, then stimulated with LPS (10 ug/ml) or CpG (5 uM) for 30 minutes. Cells were stained for phospho-Akt or phospho-Erk and analyzed by flow cytometry.
as §3

The test system of experiment [5] is Erk. The experiment can be described thus: phospho-Erk signaling in BMDMs. The following applies: 1 mM TDMM 24 hours, LPS 1 ug/ml 15 minutes. As to the method:
as §4, §3

Experiment [6] relates to Erk. The experiment can be described thus: pERK signaling in BMDCs. The settings on record: 1 mM TDMM 24 hours, CpG (5 uM) 15 minutes. As to the method: as §3
A further experiment concerns Stat3. The experiment can be described thus: IL-6 induced pSTAT3 signaling in splenic DCs. The following applies: for IL-6 induced pSTAT3 signaling in splenic DCs: TDMM 24 hours, 10 ng/ml IL-6 30 minutes; for IL-6 induced pSTAT3 expression, CD4+ DCs / IL-6 induced pSTAT3 expression, CD4− DCs: splenic DCs, 1 mM TDMM 24 hours, IL-6 (10 ng/ml) 30 minutes. On the procedure: Briefly, flow cytometric analysis was performed on splenic DCs conditioned with the indicated TDMMs for 24 hours and then subsequently stimulated with 10 ng/ml IL-6 for 30 minutes.

Experiment [7] deals with TNF. As to the kind of experiment: TNF production in BMDMs, intracellular staining, flow cytometry. The settings on record: BMDMs, 1 mM TDMM 24 hours, LPS 1 ug/ml 4 hours. As to the method:
(§5) BMDMs were treated with indole or DMF control for 18 hours or 4 hours, followed by stimulation with LPS (2 ug/ml or 250 ng/ml) for 4 hours in the presence of Golgiplug. BMDMs were then stained for intracellular TNF or IL-12 and analyzed by flow cytometry.
(§6) First, pro-inflammatory cytokine production in macrophages was investigated. […] In the DC study described herein, DCs were typically conditioned with indole during their development from bone marrow precursors in order to mimic the proximity of DC progenitor cells to indole in the intestinal microenvironment during development. […] BMDMs were treated for 18 hours with indole, followed by a 4 hour stimulation with either a very high (2 ug/ml) or low (250 ng/ml) dose of LPS.
(§7) Additionally, to determine if recently arrived macrophage precursors might also be affected, BMDMs were next treated for just 4 hours with indole, followed by a […] stimulation with the same LPS concentrations.
(§8) To address the question of indole and AhR dependence in macrophages, experiments using BMDMs derived from AhR-knockout mice were run alongside wild-type littermate controls. Specifically, flow cytometric analysis of BMDMs was performed on WT or AhR-KO mice and treated with indole or DMF control for 18 hours. BMDMs were stimulated for 4 hours with LPS (50 ng/ml) in the presence of Golgiplug, then stained for intracellular TNF (left panels) and IL-12 (right panels).
as §3
(§9) Bone marrow was harvested as described above and cultured at a density of 1×10^6 cells in 10 ml complete media supplemented with 10 ng/ml M-CSF (Peprotech) in 100 mm×15 mm petri dishes. Media with cytokine was replenished on day 3. Adherent and semi-adherent cells were recovered on day 7, plated, and treated with indole prior to downstream experiments.

The subject of experiment [8] is IL-12. The experiment can be described thus: IL-12 production in BMDMs, intracellular staining, flow cytometry. The following applies: BMDMs, 1 mM TDMM 24 hours, LPS 1 ug/ml 4 hours. As to the method:
as §5, §6, §7, §8, §3, §9

Structures are written as SMILES.

Regarding `Oc1ccc2[nH]ccc2c1` [5HI, 5-hydroxyindole], the TNF result with TNF [1] was “reduction and ↓↓”. Further, the IL-12 result in the experiment on IL-12 [2] is “reduction and ↓”. Besides, the pAKT result with Akt [3] is “reduced and ↓”. Besides, in the experiment on Akt [4], the pAKT result is “reduced and ↓”. The pERK entry in the experiment with Erk [5] was “reduced and ↓”. Moreover, the pERK entry with Erk [6] is “reduced and ↓”. Also, in the experiment on Stat3, the “IL-6 induced pSTAT3 signaling in splenic DCs” value (“IL-6 induced pSTAT3 signaling” below) is recorded as “inhibits”; the “IL-6 induced pSTAT3 expression, CD4+ DCs” value is “↓”; the “IL-6 induced pSTAT3 expression, CD4− DCs” value is reported as “↓”.
For `O=C(O)C(=O)Cc1c[nH]c2ccccc12` [I3P, indole-3-pyruvate], the TNF result in the experiment on TNF [1] is “reduction and ↓”. Besides, the IL-12 result in the experiment on IL-12 [2] is “reduction and ↓”. Also, the pAKT entry in the experiment with Akt [3] is “reduced and ↓”. In the experiment with Akt [4], the pAKT result is “No effect”. Also, the pERK entry in the experiment with Erk [5] was “No effect”. The pERK entry in the experiment with Erk [6] is “reduced and ↓”. In addition, in the experiment with Stat3, the “IL-6 induced pSTAT3 signaling” value is “inhibits”; the “IL-6 induced pSTAT3 expression, CD4+ DCs” value is given as “↓”; the “IL-6 induced pSTAT3 expression, CD4− DCs” value was “↓”.
`O=C(O)Cc1c[nH]c2ccccc12` [I3AT, indole-3-acetate]: the TNF result in the experiment on TNF [1] is “reduction and ↓”; in the experiment on TNF [7], “No effect”. The IL-12 result with IL-12 [2] is “reduction and ↓”; with IL-12 [8], “reduction and ↓”. Besides, the pAKT result with Akt [3] was “reduced and ↓”; in the experiment on Akt [4] it was “No effect”. The pERK entry is “No effect” in the experiment on Erk [5]; “reduced and ↓” with Erk [6]. In addition, the “IL-6 induced pSTAT3 signaling” value in the experiment with Stat3 was “inhibits”. Moreover, in the experiment with Stat3, the “IL-6 induced pSTAT3 expression, CD4+ DCs” value was “↓”. Moreover, the “IL-6 induced pSTAT3 expression, CD4− DCs” value with Stat3 is on record as “↓”.
Take `OCc1c[nH]c2ccccc12` [I3C, indole-3-carbinol, reference compound]: the TNF result in the experiment with TNF [1] and with TNF [7] was “↓↓↓↓” in each case. The IL-12 entry was “↓↓↓” with IL-12 [2] and “↓↓↓↓” in the experiment on IL-12 [8]. The figures for the pAKT entry in the experiment on Akt [3] and with Akt [4] were “↓↓↓↓” and “↓↓”, respectively. Also, the pERK result in the experiment on Erk [5] and in the experiment on Erk [6] was “↓↓↓↓” throughout. For the same compound, the “IL-6 induced pSTAT3 expression, CD4+ DCs” value in the experiment on Stat3 was “↓↓↓↓”. Besides, the “IL-6 induced pSTAT3 expression, CD4− DCs” value with Stat3 is on record as “↓↓↓↓”.

Source of the values: patent US11612586B2, “Indole regulation of antigen presenting cells” (THE TEXAS A&M UNIVERSITY SYSTEM, priority 2016, dated 2023).
